Results on two compounds are retold here after ChEMBL document CHEMBL1152319, “Bromopyrrole alkaloids from marine sponges of the genus Agelas” (2009).

In general, MIC refers to the least concentration at which growth counts as inhibited. A higher MIC goes with weaker potency.

Holding throughout (type): functional
One test concerns Staphylococcus aureus. Put plainly: Antibacterial activity against Staphylococcus aureus.
A further test relates to Bacillus subtilis. The experiment in a line: Antibacterial activity against Bacillus subtilis.
Another test deals with Micrococcus luteus. The experiment in a line: Antibacterial activity against Micrococcus luteus.
A further test deals with Aspergillus niger. Put plainly: Antifungal activity against Aspergillus niger.

Values after ≈ are worked out from the molar mass of the structure shown.

On to `N=C1N[C@H]2N3C(=N)N[C@@H](O)[C@@]34[C@H]([C@H](CNC(=O)c3cc(Br)c[nH]3)[C@@H](CNC(=O)c3cc(Br)c(Br)[nH]3)[C@@H]4Cl)[C@@]2(O)N1` [NAGELAMIDE O], for which the MIC in the test on Staphylococcus aureus, in the test on Bacillus subtilis and against Micrococcus luteus was 33.3 µg/mL (≈ 43.4 µM) throughout.
In the test on Aspergillus niger, `O=C1NC(=O)/C(=C/[C@@H](O)CNC(=O)c2cc(Br)c(Br)[nH]2)N1` [MUKANADIN F] showed an MIC of 16.7 µg/mL (≈ 39.6 µM).
